The subject of this assay is AKT. The assay is described as follows: AKT inhibition in normal human hepatocytes (western blot). The settings on record: 5 μM MK-2206, 24 hours, freshly isolated normal human hepatocytes, preliminary experiments. It is filed as cell-based. The source says: Protein extraction and Western blotting. To perform the protein expression analysis, the isolated hepatocytes were divided in two fractions; one fraction was used for total protein extraction, according to standard procedures previously described (Bell A W et al., 2006) and the other fraction was used for nuclear protein isolation. For nuclear protein isolation, between 1×10^7 and 5×10^7 isolated hepatocytes per patient were washed and harvested in 40 mmol/L Tris (pH 7.6), 14 mmol/L NaCl, and 1 mmol/L EDTA, then centrifuged (5 min, 100g). Cell pellets were suspended in 2 mL of hypotonic buffer [10 mmol/L HEPES (pH 7.9), 10 mmol/L NaH2PO4, 1.5 mmol/L MgCl2, 1 mmol/L DTT, 0.5 mmol/L spermidine, and […] with protease and phosphatase inhibitor cocktails (Sigma, St. Louis, Mo.)]. Following 10 minutes of incubation on ice, samples were homogenized in a Dounce homogenizer and then centrifuged (5 min, 800 g). Cell lysis was monitored with trypan blue stain. Supernatants were saved as cytoplasmic extracts. The nuclei pellets were washed two additional times in the same buffer.
Nuclear proteins were extracted in 50-100 μL of hypertonic buffer [30 mmol/L HEPES (pH 7.9), 25% glycerol, 450 mmol/L NaCl, 12 mmol/L MgCl2, 1 mmol/L DTT, and 0.1 mmol/L EDTA with protease and phosphatase inhibitor cocktails (Sigma, St. Louis, Mo.)] for 45 minutes at 4° C. with continuous agitation. Extracts were centrifuged at 30,000 g, and the supernatants were collected and dialyzed for 2 hours against the same solution but containing 150 mmol/L NaCl. Protein concentration was determined by the Bicinchoninic Acid assay (Sigma, St. Louis, Mo.).
Western blot analysis performed according to standard procedures (Natarajan A et al., 2007). The intensity of each protein band was quantitated using National Institutes of Health Image J software. The primary antibodies and its dilutions are listed in the above shown Table 2.
AKT Inhibition in Normal Human Hepatocytes. Normal human hepatocytes (1 million cells/well) were cultured on collagen-coated wells. […]
(In general: In western blotting, separated proteins are transferred to a membrane and probed.)

For the molecule `NC1(c2ccc(-c3nc4ccn5c(=O)[nH]nc5c4cc3-c3ccccc3)cc2)CCC1` [MK-2206], the “acetylated nuclear HNF4α expression reduced compared with nontreated controls” value is on record as 14%, the “activated AKT(Thr308) expression reduced compared with nontreated controls” value was found to be 80% and the “nuclear HNF4α expression reduced compared with nontreated controls” value came out at 25%.
